Assay results published in article PMC12251549, “Engineering a Radiohybrid PSMA Ligand with an Albumin-Binding Moiety and Pharmacokinetic Modulation via an Albumin-Binding Competitor for Radiotheranostics” (Molecules, 2025).

Columns and labels:
[1] = tested on: PSMA-expressing LNCaP cells; assay: Cellular uptake and internalization in LNCaP cells, blocking with 2-PMPA; format: cell-based
Protocol: Cellular uptake experiments were performed according to a previous report with slight modifications. LNCaP cells expressing PSMA were cultured in RPMI 1640 medium containing 10% fetal bovine serum (FBS) and 1% penicillin–streptomycin on 6-well culture plates (containing 5 × 10^5 cells/well) for 24 h in a humidified atmosphere (5% CO2) incubator at 37 °C. After removing the medium and washing with phosphate-buffered saline (PBS) (−) once, a mixed solution of [^125I]5 and [^211At]6, [^125I]5 and [^67Ga]Ga-PSMA-617, and [^125I]5 and [^67Ga]5 in 1.0 mL of medium without FBS was added (3.7 kBq/each tracer/well). The final concentrations of the radioligands for [^125I]5, [^211At]6, and [^67Ga]5 were 45.5 pM, 0.2 pM, and 2.5 pM, respectively. These solutions containing radioligands were diluted in saline containing 0.05% (w/v) bovine serum albumin (BSA) to prevent adsorption to tubes or plates and further diluted with medium to 0.00125% as the final BSA concentration. After incubation for 10, 60, and 120 min, the medium from each well was removed, and the cells were washed twice with ice-cold PBS (−); the surface of the cells was washed twice with ice-cold 0.2 M glycine buffer (pH 3.0). The cells were lysed using a 1 M NaOH aqueous solution. The radioactivity of ^67Ga,^125I and ^211At in the 1 M NaOH aqueous solution was determined and defined as the internalized radioligand fraction using an auto well gamma counter (ARC-8001, Hitachi, Ltd., Tokyo, Japan) according to a previous paper. The radioactivity was determined with an auto well gamma counter and corrected for background radiation and physical decay during counting. A window from 16 to 69 keV was used for counting ^125I, and a window from 70 to 120 keV was used for counting ^211At. Correlation factors to eliminate any crossover of ^125I activity in the ^211At counts were determined by measuring the ^125I standard in each window. More than one week after the experiments, the radioactivity counts of ^125I were measured after the decay of ^211At. The protein amount in cells was quantified using a BCA Protein Assay Kit (Nacalai Tesque, Kyoto, Japan) according to the manufacturer’s protocol. All data were expressed as percent dose per milligram protein (%dose/mg protein). In blocking experiments, a selective inhibitor of the PSMA, (2S)-2-(phosphonomethyl)pentanedioic acid (2-PMPA) (final concentration 100 µM), was added to each well with tracers. After incubation for 10, 60, and 120 min, radioactivity and protein concentration were determined in the same manner as the experiment without the blocking agent.

[2] = In vitro stability test in 0.1 M phosphate buffer; format: physicochemical; conditions: 0.1 M PB solution containing 10% ethanol, 37 °C, 24 h, mean ± SD for three samples
Protocol: samples were analyzed by RP-HPLC using a Cosmosil 5C18-AR-II (4.6 × 150 mm) at a flow rate of 1 mL/min with a gradient mobile phase of 60% methanol in water with 0.1% trifluoroacetic acid (TFA) to 80% methanol in water with 0.1% TFA for 20 min.
In vitro stability test in 0.1 M PB solution containing 10% ethanol was performed. The […]
and 97.1 ± 0.9% (mean ± SD for three samples) after incubating at 37 °C for 24 h, […]

[3] = Biodistribution after intravenous co-injection of [125I]5 and [67Ga]Ga-PSMA-617 (Table S1); format: in vivo, normal mice (ddY); conditions: normal mice; for Biodistribution of radioactivity: Blood / Biodistribution of radioactivity: Bone / Biodistribution of radioactivity: Brain / Biodistribution of radioactivity: Heart / Biodistribution of radioactivity: Kidney / Biodistribution of radioactivity: L. Intestine / Biodistribution of radioactivity: Liver / Biodistribution of radioactivity: Lung / Biodistribution of radioactivity: Muscle / Biodistribution of radioactivity: Neck / Biodistribution of radioactivity: Pancreas / Biodistribution of radioactivity: S. Intestine / Biodistribution of radioactivity: Spleen / Biodistribution of radioactivity: Stomach: i.v.
Protocol: [^67Ga]Ga-PSMA-617 (37 kBq) and [^125I]5 (37 kBq) or [^125I]5 (37 kBq) and [^211At]6 (37 kBq) were intravenously co-administered into three or four normal mice at each timepoint (6 weeks male ddY mice, 28–30 g, Japan SLC, Inc., Hamamatsu, Japan). Mice were sacrificed at 10 min, 1 h, 4 h, and 24 h ([^67Ga]Ga-PSMA-617 and [^125I]5) or at 10 min, 1 h, 4 h, 12 h, and 24 h ([^125I]5 and [^211At]6) postinjection of the radiolabeled compounds. Tissues of interest were removed and weighed, and the radioactivity of ^67Ga and ^125I and ^125I and ^211At were determined with an auto well gamma counter (ARC-8001) and corrected for background radiation as described in the Cellular Uptake Experiments Section. To determine the amount and routes of the radioactivity excreted from the body for 24 h after the injection of radiolabeled compounds, mice were housed in metabolic cages (METABOLICA, SUGIYAMA-GEN Co., Ltd., Tokyo, Japan). Data are shown as the percentage of injected dose per gram of tissues (%ID/g) or %ID.

O=C([O-])CN1CCN(CC(=O)[O-])CCN(CC(=O)NC(CCCCNC(=O)CCCc2ccc(I)cc2)C(=O)NCC2CCC(C(=O)NC(Cc3ccc4ccccc4c3)C(=O)NCCCCC(NC(=O)NC(CCC(=O)O)C(=O)O)C(=O)O)CC2)CCN(CC(=O)[O-])CC1.[67Ga+3] (centres unmarked) [[^67Ga]5]
Effect of excess 2-PMPA on cellular uptake ([1]; 2-PMPA 100 µM): significantly reduced
Radiochemical purity after incubation (in vitro stability) [2]: 93.1 ± 0.9%

O=C([O-])CN1CCN(CC(=O)[O-])CCN(CC(=O)NCC2CCC(C(=O)NC(Cc3ccc4ccccc4c3)C(=O)NCCCCC(NC(=O)NC(CCC(=O)O)C(=O)O)C(=O)O)CC2)CCN(CC(=O)[O-])CC1.[67Ga+3] (centres unmarked) [[^67Ga]Ga-PSMA-617, reference compound]
Cellular uptake and internalization levels compared with [125I]5 and [211At]6 [1]: lower
Clearance from organs ([3]; 1 h postinjection): rapid clearance from most organs except the kidney
Excretion in feces ([3]; 24 h postinjection): 2.4 ± 0.3 %ID
Excretion in urine ([3]; 24 h postinjection): 58.0 ± 2.6 %ID
Biodistribution of radioactivity: Blood ([3]; 10 min after injection): 3.40 (0.42) % injected dose per gram
Biodistribution of radioactivity: Bone ([3]; 10 min after injection): 1.02 (0.23) % injected dose per gram
Biodistribution of radioactivity: Brain ([3]; 10 min after injection): 0.11 (0.02) % injected dose per gram
Biodistribution of radioactivity: Heart ([3]; 10 min after injection): 1.22 (0.11) % injected dose per gram
Biodistribution of radioactivity: Kidney ([3]; 10 min after injection): 69.46 (8.76) % injected dose per gram
Biodistribution of radioactivity: L. Intestine ([3]; 10 min after injection): 0.58 (0.07) % injected dose per gram
Biodistribution of radioactivity: Liver ([3]; 10 min after injection): 0.74 (0.10) % injected dose per gram
Biodistribution of radioactivity: Lung ([3]; 10 min after injection): 2.60 (0.40) % injected dose per gram
Biodistribution of radioactivity: Muscle ([3]; 10 min after injection): 0.75 (0.08) % injected dose per gram
Biodistribution of radioactivity: Neck ([3]; 10 min after injection): 0.02 (0.01) % injected dose
Biodistribution of radioactivity: Pancreas ([3]; 10 min after injection): 1.03 (0.18) % injected dose per gram
Biodistribution of radioactivity: S. Intestine ([3]; 10 min after injection): 0.75 (0.03) % injected dose per gram
Biodistribution of radioactivity: Spleen ([3]; 10 min after injection): 0.96 (0.09) % injected dose per gram
Biodistribution of radioactivity: Stomach ([3]; 10 min after injection): 0.38 (0.02) % injected dose
Biodistribution of radioactivity: Blood ([3]; 1 h after injection): 0.29 (0.04) % injected dose per gram
Biodistribution of radioactivity: Bone ([3]; 1 h after injection): 0.18 (0.04) % injected dose per gram
Biodistribution of radioactivity: Brain ([3]; 1 h after injection): 0.02 (0.00) % injected dose per gram
Biodistribution of radioactivity: Heart ([3]; 1 h after injection): 0.11 (0.00) % injected dose per gram
Biodistribution of radioactivity: Kidney ([3]; 1 h after injection): 16.32 (3.17) % injected dose per gram
Biodistribution of radioactivity: L. Intestine ([3]; 1 h after injection): 0.07 (0.01) % injected dose per gram
Biodistribution of radioactivity: Liver ([3]; 1 h after injection): 0.18 (0.07) % injected dose per gram
Biodistribution of radioactivity: Lung ([3]; 1 h after injection): 0.28 (0.03) % injected dose per gram
Biodistribution of radioactivity: Muscle ([3]; 1 h after injection): 0.09 (0.00) % injected dose per gram
Biodistribution of radioactivity: Neck ([3]; 1 h after injection): 0.00 (0.00) % injected dose
Biodistribution of radioactivity: Pancreas ([3]; 1 h after injection): 0.14 (0.03) % injected dose per gram
Biodistribution of radioactivity: S. Intestine ([3]; 1 h after injection): 0.16 (0.02) % injected dose per gram
Biodistribution of radioactivity: Spleen ([3]; 1 h after injection): 0.14 (0.01) % injected dose per gram
Biodistribution of radioactivity: Stomach ([3]; 1 h after injection): 0.07 (0.02) % injected dose
Biodistribution of radioactivity: Blood ([3]; 4 h after injection): 0.07 (0.01) % injected dose per gram
Biodistribution of radioactivity: Bone ([3]; 4 h after injection): 0.14 (0.05) % injected dose per gram
Biodistribution of radioactivity: Brain ([3]; 4 h after injection): 0.01 (0.00) % injected dose per gram
Biodistribution of radioactivity: Heart ([3]; 4 h after injection): 0.04 (0.02) % injected dose per gram
Biodistribution of radioactivity: Kidney ([3]; 4 h after injection): 1.54 (0.08) % injected dose per gram
Biodistribution of radioactivity: L. Intestine ([3]; 4 h after injection): 0.59 (0.79) % injected dose per gram
Biodistribution of radioactivity: Liver ([3]; 4 h after injection): 0.08 (0.01) % injected dose per gram
Biodistribution of radioactivity: Lung ([3]; 4 h after injection): 0.06 (0.01) % injected dose per gram
Biodistribution of radioactivity: Muscle ([3]; 4 h after injection): 0.02 (0.01) % injected dose per gram
Biodistribution of radioactivity: Neck ([3]; 4 h after injection): 0.00 (0.00) % injected dose
Biodistribution of radioactivity: Pancreas ([3]; 4 h after injection): 0.04 (0.02) % injected dose per gram
Biodistribution of radioactivity: S. Intestine ([3]; 4 h after injection): 0.22 (0.17) % injected dose per gram
Biodistribution of radioactivity: Spleen ([3]; 4 h after injection): 0.05 (0.01) % injected dose per gram
Biodistribution of radioactivity: Stomach ([3]; 4 h after injection): 0.07 (0.04) % injected dose
Biodistribution of radioactivity: Blood ([3]; 24 h after injection): 0.01 (0.00) % injected dose per gram
Biodistribution of radioactivity: Bone ([3]; 24 h after injection): 0.16 (0.04) % injected dose per gram
Biodistribution of radioactivity: Brain ([3]; 24 h after injection): 0.00 (0.00) % injected dose per gram
Biodistribution of radioactivity: Heart ([3]; 24 h after injection): 0.01 (0.01) % injected dose per gram
Biodistribution of radioactivity: Kidney ([3]; 24 h after injection): 0.29 (0.06) % injected dose per gram
Biodistribution of radioactivity: L. Intestine ([3]; 24 h after injection): 0.15 (0.11) % injected dose per gram
Biodistribution of radioactivity: Liver ([3]; 24 h after injection): 0.04 (0.01) % injected dose per gram
Biodistribution of radioactivity: Lung ([3]; 24 h after injection): 0.02 (0.01) % injected dose per gram
Biodistribution of radioactivity: Muscle ([3]; 24 h after injection): 0.01 (0.00) % injected dose per gram
Biodistribution of radioactivity: Neck ([3]; 24 h after injection): 0.00 (0.00) % injected dose
Biodistribution of radioactivity: Pancreas ([3]; 24 h after injection): 0.02 (0.01) % injected dose per gram
Biodistribution of radioactivity: S. Intestine ([3]; 24 h after injection): 0.04 (0.03) % injected dose per gram
Biodistribution of radioactivity: Spleen ([3]; 24 h after injection): 0.03 (0.01) % injected dose per gram
Biodistribution of radioactivity: Stomach ([3]; 24 h after injection): 0.05 (0.04) % injected dose
